In US20230390402A1, “IONIZABLE CATIONIC LIPID ANALOG MATERIAL AND USE THEREOF AS DRUG DELIVERY CARRIER” (GUANGZHOU LIDE BIOMEDICINE TECHNOLOGY CO., LTD., priority 2021, published 2023):

What was measured:
HeLa cells [1] = test: Transfection of GFP-expressing plasmid DNA in HeLa cells (FCM); format: cell-based; settings: material 0.25-8 μg/well, plasmid DNA 0.5 μg/well, 24 h, compared with Lipofectamine 2000
Experimental: In this experiment, with GFP-expressing plasmid DNA as a reporter gene, a gene transfection efficiency of a cationic lipid analog material in HeLa cells was detected. A specific method was as follows:
HeLa cells were inoculated in a 24-well plate and cultured in an incubator for 12 h; each of different cationic lipid analog materials—(0.25 μg/well to 8 μg/well) was mixed with GFP-expressing plasmid DNA (0.5 μg/well) in 40 μL of a sodium acetate buffer (25 mM, […] resulting mixtures each were allowed to stand for 10 min and then diluted with 460 μL of a Opti-MEM medium to obtain plasmid DNA-loaded cationic lipid analog complex particle solutions; a medium for the HeLa cells in the plate was removed, then the HeLa cells were washed once with PBS, and the complex particle solutions each were added; and the cells were further cultured for 24 h, and then a plasmid DNA transfection efficiency in cells was analyzed by FCM. A commercial gene transfection reagent Lipofectamine 2000 was adopted as a positive control.

HeLa cells [2] = test: Transfection of luciferase-expressing plasmid DNA in HeLa cells; format: cell-based; settings: 24 h, compared with Lipofectamine 2000
Experimental: In this example, with luciferase-expressing plasmid DNA as a reporter gene, a gene transfection efficiency of a cationic lipid analog material in HeLa cells was detected. A specific operation method was as follows: HeLa cells were inoculated in a 96-well plate and cultured in an incubator for 12 h; each of different cationic lipid analog materials was mixed with luciferase-expressing plasmid DNA (0.5 μg) in 40 μL of a sodium acetate buffer (25 mM, pH 5.2), and resulting mixtures each were allowed to stand for 10 min and then diluted with 460 μL of a Opti-MEM medium to obtain plasmid DNA-loaded cationic lipid analog complex particle solutions; a medium for the HeLa cells in the plate was removed, then the HeLa cells were washed once with PBS, and the complex particle solutions each were added in a volume of 125 μL; the cells were further cultured for 24 h, then a resulting culture supernatant was discarded, and the cells were fully lysed; and a substrate was added at 50 μl/well, and an expression level of luciferase was detected by a multi-mode microplate reader.

DC 2.4 cells = test: Transfection of eGFP-expressing mRNA in DC 2.4 cells (FCM and LSCM); format: cell-based, mouse; settings: material 0.25-2 μg/well, mRNA 0.2 μg/well, 24 h, compared with Lipofectamine 2000
Experimental: In this experiment, with eGFP-mRNA as model mRNA, an mRNA transfection efficiency of a cationic lipid analog material in DC 2.4 cells was detected. A specific operation method was as follows:
DC 2.4 cells were inoculated in a 48-well plate and cultured in an incubator for 12 h; each of different cationic lipid analog materials (0.25 μg/well to 2 μg/well) was mixed with eGFP-expressing mRNA (0.2 μg/well) in 20 μL of a sodium acetate buffer (25 mM, pH 5.2), and resulting mixtures each were allowed to stand for 10 min and then diluted with 230 μL of a Opti-MEM medium to obtain mRNA-loaded complex particle solutions; a medium for the DC 2.4 cells in the plate was removed, then the DC 2.4 cells were washed once with PBS, and the complex particle solutions each were added; and the cells were cultured for 24 h, an mRNA transfection efficiency in cells was observed by FCM and LSCM. A commercial gene transfection reagent Lipofectamine 2000 was adopted as a positive control.

SMILES | transfection efficiency of GFP-expressing plasmid DNA (positive rate) (HeLa cells [1]) | transfection efficiency of luciferase-expressing plasmid DNA (luciferase expression) (HeLa cells [2]) | mRNA transfection efficiency (eGFP-mRNA) (DC 2.4 cells)
CCCCCCCCCCCCCC(=O)N(CCCCN(C)C)C(C(=O)NCCCCCCNC(=O)C(C(C)C)N(CCCN(C)C)C(=O)CCCCCCCCCCCCC)C(C)C (stereo not shown) [I1R2C14A1] | equivalent to or higher than | equivalent to or higher than | equivalent to or higher than
CCCCCCCCCCCCCCCC(=O)N(CCCN(C)C)C(C(=O)NCCCCCCNC(=O)C(C(C)C)N(CCCN(C)C)C(=O)CCCCCCCCCCCCCCC)C(C)C (stereo not shown) [I1R2C16A1] | – | – | equivalent to or higher than
CCCCCCCC/C=C\CCCCCCCC(=O)N(CCCN(C)C)C(C(=O)NCCCCCCNC(=O)C(C(C)C)N(CCCN(C)C)C(=O)CCCCCCC/C=C\CCCCCCCC)C(C)C (stereo not shown) [I1R2C18-1A1] | – | – | equivalent to or higher than
CCCCC/C=C\C/C=C\CCCCCCCC(=O)N(CCCN(C)C)C(C(=O)NCCCCCCNC(=O)C(C(C)C)N(CCCN(C)C)C(=O)CCCCCCC/C=C\C/C=C\CCCCC)C(C)C (stereo not shown) [I1R2C18-2A1] | equivalent to or higher than | – | equivalent to or higher than
CCCCCCCCCCCCCCCCCC(=O)N(CCCN(C)C)C(C(=O)NCCCCCCNC(=O)C(C(C)C)N(CCCN(C)C)C(=O)CCCCCCCCCCCCCCCCC)C(C)C (stereo not shown) [I1R2C18A1] | – | – | equivalent to or higher than
CCCCCCCCCCCCCC(=O)N(CCC1CCCN1C)C(C(=O)NCCCCCCNC(=O)C(C(C)C)N(CCC1CCCN1C)C(=O)CCCCCCCCCCCCC)C(C)C (stereo not shown) [I1R11C14A1] | equivalent to or higher than | equivalent to or higher than | equivalent to or higher than
CCCCCCCCCCCCCCCC(=O)N(CCC1CCCN1C)C(C(=O)NCCCCCCNC(=O)C(C(C)C)N(CCC1CCCN1C)C(=O)CCCCCCCCCCCCCCC)C(C)C (stereo not shown) [I1R11C16A1] | – | – | equivalent to or higher than
CCCCCCCCCCCCCCCCCC(=O)N(CCC1CCCN1C)C(C(=O)NCCCCCCNC(=O)C(C(C)C)N(CCC1CCCN1C)C(=O)CCCCCCCCCCCCCCCCC)C(C)C (stereo not shown) [I1R11C18A1] | – | – | equivalent to or higher than
CCCCCCCCCCCCCC(=O)N(CCN(C)C)C(C(=O)NCCOCCOCCNC(=O)C(C(C)C)N(CCN(C)C)C(=O)CCCCCCCCCCCCC)C(C)C (stereo not shown) [I2R1C14A1] | equivalent to or higher than | equivalent to or higher than | equivalent to or higher than
CCCCCCCCCCCCCCCC(=O)N(CCN(C)C)C(C(=O)NCCOCCOCCNC(=O)C(C(C)C)N(CCN(C)C)C(=O)CCCCCCCCCCCCCCC)C(C)C (stereo not shown) [I2R1C16A1] | equivalent to or higher than | equivalent to or higher than | equivalent to or higher than
CCCCCCCC/C=C\CCCCCCCC(=O)N(CCN(C)C)C(C(=O)NCCOCCOCCNC(=O)C(C(C)C)N(CCN(C)C)C(=O)CCCCCCC/C=C\CCCCCCCC)C(C)C (stereo not shown) [I2R1C18-1A1] | equivalent to or higher than | equivalent to or higher than | equivalent to or higher than
CCCCC/C=C\C/C=C\CCCCCCCC(=O)N(CCN(C)C)C(C(=O)NCCOCCOCCNC(=O)C(C(C)C)N(CCN(C)C)C(=O)CCCCCCC/C=C\C/C=C\CCCCC)C(C)C (stereo not shown) [I2R1C18-2A1] | equivalent to or higher than | – | –
CCCCCCCCCCCCCC(=O)N(CCCN(C)C)C(C(=O)NCCOCCOCCNC(=O)C(C(C)C)N(CCCN(C)C)C(=O)CCCCCCCCCCCCC)C(C)C (stereo not shown) [I2R2C14A1] | equivalent to or higher than | – | equivalent to or higher than
CCCCCCCCCCCCCC(=O)C(CCCN(CC)CC)C(C(=O)NCCOCCOCCNC(=O)C(C(C)C)N(CCCN(CC)CC)C(=O)CCCCCCCCCCCCC)C(C)C (stereo not shown) [I2R3C14A1] | – | – | equivalent to or higher than
CCCCCCCCCCCCCCCC(=O)C(CCCN(CC)CC)C(C(=O)NCCOCCOCCNC(=O)C(C(C)C)N(CCCN(CC)CC)C(=O)CCCCCCCCCCCCCCC)C(C)C (stereo not shown) [I2R3C16A1] | equivalent to or higher than | equivalent to or higher than | equivalent to or higher than
CCCCCCCCCCCCCCCCCC(=O)C(CCCN(CC)CC)C(C(=O)NCCOCCOCCNC(=O)C(C(C)C)N(CCCN(CC)CC)C(=O)CCCCCCCCCCCCCCCCC)C(C)C (stereo not shown) [I2R3C18A1] | equivalent to or higher than | equivalent to or higher than | equivalent to or higher than
CCCCCCCCCCCCCCN(CCC1CCCN1C)C(C(=O)NCCOCCOCCNC(=O)C(C(C)C)N(CCC1CCCN1C)C(=O)CCCCCCCCCCCCC)C(C)C (stereo not shown) [I2R11C14A1] | equivalent to or higher than | – | equivalent to or higher than
CCCCCCCCCCCCCCCCN(CCC1CCCN1C)C(C(=O)NCCOCCOCCNC(=O)C(C(C)C)N(CCC1CCCN1C)C(=O)CCCCCCCCCCCCCCC)C(C)C (stereo not shown) [I2R11C16A1] | equivalent to or higher than | – | equivalent to or higher than
CCCCCCCC/C=C\CCCCCCCC(=O)N(CCC1CCCN1C)C(C(=O)NCCOCCOCCNC(=O)C(C(C)C)N(CCC1CCCN1C)C(=O)CCCCCCC/C=C\CCCCCCCC)C(C)C (stereo not shown) [I2R11C18-1A1] | equivalent to or higher than | – | equivalent to or higher than
CCCCC/C=C\C/C=C\CCCCCCCC(=O)N(CCC1CCCN1C)C(C(=O)NCCOCCOCCNC(=O)C(C(C)C)N(CCC1CCCN1C)C(=O)CCCCCCC/C=C\C/C=C\CCCCC)C(C)C (stereo not shown) [I2R11C18-2A1] | equivalent to or higher than | equivalent to or higher than | equivalent to or higher than
CCCCCCCCCCCCCCCCCCN(CCC1CCCN1C)C(C(=O)NCCOCCOCCNC(=O)C(C(C)C)N(CCC1CCCN1C)C(=O)CCCCCCCCCCCCCCCCC)C(C)C (stereo not shown) [I2R11C18A1] | equivalent to or higher than | – | equivalent to or higher than
